{
  "source": "BigSolDB 2.1",
  "data": [
    {"compound": "Clc1ncnc2nc[nH]c12", "values": [
      {"measurement": "solubility (mole fraction)", "setting": "in DMAc, 283.15 K", "value": 0.0175},
      {"measurement": "solubility (mole fraction)", "setting": "in DMAc, 288.15 K", "value": 0.0217},
      {"measurement": "solubility (mole fraction)", "setting": "in DMAc, 293.15 K", "value": 0.0267},
      {"measurement": "solubility (mole fraction)", "setting": "in DMAc, 298.15 K", "value": 0.0334},
      {"measurement": "solubility (mole fraction)", "setting": "in DMAc, 303.15 K", "value": 0.0411},
      {"measurement": "solubility (mole fraction)", "setting": "in DMAc, 308.15 K", "value": 0.0504},
      {"measurement": "solubility (mole fraction)", "setting": "in DMAc, 313.15 K", "value": 0.061},
      {"measurement": "solubility (mole fraction)", "setting": "in DMAc, 318.15 K", "value": 0.074},
      {"measurement": "solubility (mole fraction)", "setting": "in DMAc, 323.15 K", "value": 0.0893},
      {"measurement": "solubility (mole fraction)", "setting": "in DMAc, 328.15 K", "value": 0.107},
      {"measurement": "solubility (mole fraction)", "setting": "in DMF, 283.15 K", "value": 0.0555},
      {"measurement": "solubility (mole fraction)", "setting": "in DMF, 288.15 K", "value": 0.0645},
      {"measurement": "solubility (mole fraction)", "setting": "in DMF, 293.15 K", "value": 0.075},
      {"measurement": "solubility (mole fraction)", "setting": "in DMF, 298.15 K", "value": 0.0871},
      {"measurement": "solubility (mole fraction)", "setting": "in DMF, 303.15 K", "value": 0.0995},
      {"measurement": "solubility (mole fraction)", "setting": "in DMF, 308.15 K", "value": 0.114},
      {"measurement": "solubility (mole fraction)", "setting": "in DMF, 313.15 K", "value": 0.129},
      {"measurement": "solubility (mole fraction)", "setting": "in DMF, 318.15 K", "value": 0.147},
      {"measurement": "solubility (mole fraction)", "setting": "in DMF, 323.15 K", "value": 0.165},
      {"measurement": "solubility (mole fraction)", "setting": "in DMF, 328.15 K", "value": 0.186},
      {"measurement": "solubility (mole fraction)", "setting": "in ethanol, 283.15 K", "value": 0.0087},
      {"measurement": "solubility (mole fraction)", "setting": "in ethanol, 288.15 K", "value": 0.0103},
      {"measurement": "solubility (mole fraction)", "setting": "in ethanol, 293.15 K", "value": 0.0122},
      {"measurement": "solubility (mole fraction)", "setting": "in ethanol, 298.15 K", "value": 0.0144},
      {"measurement": "solubility (mole fraction)", "setting": "in ethanol, 303.15 K", "value": 0.0168},
      {"measurement": "solubility (mole fraction)", "setting": "in ethanol, 308.15 K", "value": 0.0195},
      {"measurement": "solubility (mole fraction)", "setting": "in ethanol, 313.15 K", "value": 0.0226},
      {"measurement": "solubility (mole fraction)", "setting": "in ethanol, 318.15 K", "value": 0.026},
      {"measurement": "solubility (mole fraction)", "setting": "in ethanol, 323.15 K", "value": 0.0296},
      {"measurement": "solubility (mole fraction)", "setting": "in ethanol, 328.15 K", "value": 0.0338},
      {"measurement": "solubility (mole fraction)", "setting": "in methanol, 283.15 K", "value": 0.0112},
      {"measurement": "solubility (mole fraction)", "setting": "in methanol, 288.15 K", "value": 0.0132},
      {"measurement": "solubility (mole fraction)", "setting": "in methanol, 293.15 K", "value": 0.0153},
      {"measurement": "solubility (mole fraction)", "setting": "in methanol, 298.15 K", "value": 0.0178},
      {"measurement": "solubility (mole fraction)", "setting": "in methanol, 303.15 K", "value": 0.0204},
      {"measurement": "solubility (mole fraction)", "setting": "in methanol, 308.15 K", "value": 0.0234},
      {"measurement": "solubility (mole fraction)", "setting": "in methanol, 313.15 K", "value": 0.0268},
      {"measurement": "solubility (mole fraction)", "setting": "in methanol, 318.15 K", "value": 0.0304},
      {"measurement": "solubility (mole fraction)", "setting": "in methanol, 323.15 K", "value": 0.0345},
      {"measurement": "solubility (mole fraction)", "setting": "in methanol, 328.15 K", "value": 0.0389},
      {"measurement": "solubility (mole fraction)", "setting": "in water, 283.15 K", "value": 0.00051},
      {"measurement": "solubility (mole fraction)", "setting": "in water, 288.15 K", "value": 0.000555},
      {"measurement": "solubility (mole fraction)", "setting": "in water, 293.15 K", "value": 0.000601},
      {"measurement": "solubility (mole fraction)", "setting": "in water, 298.15 K", "value": 0.000658},
      {"measurement": "solubility (mole fraction)", "setting": "in water, 303.15 K", "value": 0.000709},
      {"measurement": "solubility (mole fraction)", "setting": "in water, 308.15 K", "value": 0.000761},
      {"measurement": "solubility (mole fraction)", "setting": "in water, 313.15 K", "value": 0.000815},
      {"measurement": "solubility (mole fraction)", "setting": "in water, 318.15 K", "value": 0.000873},
      {"measurement": "solubility (mole fraction)", "setting": "in water, 323.15 K", "value": 0.000935},
      {"measurement": "solubility (mole fraction)", "setting": "in water, 328.15 K", "value": 0.000994}
    ]}
  ]
}
